Experimental data taken from PubChem BioAssay AID1845216 (Molecular Pharmacology Branch, DTP, NCI, 2023).
Values joined by “and” are separate entries in the source; they are usually repeats but may differ in a detail not shown here. Equal entries are not always repeated.

Test system: SW 982 tumor spheroid viability
Test: Anticancer human tumor SW 982 cell line growth inhibition;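 further: spheroids exposed to compound for 7 days before readout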
Details: spheroids with HUVEC and MSC; for viability, T/C: stronger effect = lower value
Source text: Multicellular complex tumor spheroid response to DNA repair inhibitors in combination with DNA-damaging drugs
This study explores the anticancer activities of DNA-damaging drugs and inhibitors of DNA damage repair, both as single agents and in combinations. Complex tumor spheroids comprised of malignant cells, endothelial cells and mesenchymal stem cells served as an in vitro model for human solid tumors. This model system incorporates physiologically relevant features and patient-derived or established malignant cell lines with clinically relevant genetic alterations from many tumor types. Twenty-six patient-derived or established malignant cell lines were evaluated representing sarcoma, melanoma, small cell lung cancer (SCLC), non-small cell lung cancer (NSCLC), as well as bladder, ovarian and pancreatic cancers. The concentration ranges selected for each drug and investigational agent were based upon clinically achievable concentrations if the clinical Cmax of the agent was known.
Compounds. The drugs and compounds olaparib (NSC753686), talazoparib (NSC767125), berzosertib (NSC777718), elimusertib (NSC800525), nedisertib (NSC802822), VX-984 (NSC792969), AZD-1390 (NSC803789), temozolomide (NSC362856), topotecan (NSC609699), trabectedin (NSC813783), staurosporine (NSC755774), and gemcitabine (NSC613327) were obtained from the National Cancer Institute (NCI) Developmental Therapeutics Program Chemical Repository. The FDA-approved anticancer drug set is available from the Developmental Therapeutics Program at https://dtp.cancer.gov/organization/dscb/obtaining/available_plates.htm. […] The stock solutions were prepared in dimethyl sulfoxide (DMSO, Sigma-Aldrich, St. Louis, MO, cat. D2650) at 400-fold the tested concentration and stored at -70 degrees C. Prior to their use, the stock solutions were diluted in fresh medium and the final DMSO concentration in the assay was 0.25% (v/v). All drugs and investigational agents were tested over a range starting from a high concentration at or near the clinical Cmax and decreasing in half-log increments. If the clinical Cmax for an agent had not been determined, the highest concentration tested was 10 microM.
Cell Lines. The patient-derived cancer cell (PDC) lines: 156681-154-R-J1-PDC, 283228-195-R-J1-PDC, 287954-098-R-J1-PDC, 292921-168-R-J2-PDC, 349418-098-R-PDC, 425362-245-T-J1-PDC, 556581-035-R-J1-PDC, and BL0293-F563-PDC were received from the NCI Patient-Derived Models Repository (PDMR, https://pdmr.cancer.gov). The established cell lines HS-SY-2 (RRID:CVCL_8719), MPNST, and SYO-1 (RRID:CVCL_7146) were obtained from the Sloan Kettering Institute. The alveolar soft parts sarcoma cell line ASPS-1 (RRID:CVCL_S738) was established at the NCI and grown from internal seed stocks. The following established cell lines were purchased from the American Type Culture Collection (ATCC, Manassas, VA): G-401 (ATCC, cat. CRL-1441, RRID:CVCL_0270), SW982 (ATCC, cat. HTB-93, RRID:CVCL_1734), VA-ES-BJ (ATCC, cat. CRL-2138, RRID:CVCL_1785), NCI-H719 (ATCC, cat. CRL-5837, RRID:CVCL_1582), NCI-H196 (ATCC, cat. CRL-5823, RRID:CVCL_1509), NCI-H841 (ATCC, cat. CRL-5845, RRID:CVCL_1595), NCI-H1618 (ATCC, cat. CRL-5879, RRID:CVCL_1480), NCI-H1876 (ATCC, cat. CRL-5902, RRID:CVCL_1503), DMS 114 (ATCC, cat. CRL-2066; RRID:CVCL_1174), NCI-H211 (ATCC, cat. CRL-5824; RRID:CVCL_1529), and SW 1271 (ATCC, cat. CRL-2177, RRID:CVCL_1716). The small cell lung cancer cell line COR-L88 was purchased from Sigma-Aldrich (cat. 92031917-1VL, RRID:CVCL_1141). The non-small cell lung cancer cell lines NCI-H226 (RRID:CVCL_1544) and NCI-H322M (RRID:CVCL_1557) were established at the NCI and grown from internal seed stocks. Pooled donor human umbilical vein endothelial cells (HUVEC, Lonza, cat. CC-2519) and human mesenchymal stem cells (hMSC, Lonza, cat. PT-2501) were purchased from Lonza (Walkersville, MD).
Cell Culture. All cells were maintained in an incubator at 37 degrees C and 5% CO2 with 95% humidity. […]

[1] = curve of first compound, second compound 1 µM
[2] = curve of first compound, second compound 3.16 µM
[3] = curve of first compound, second compound 10 µM
[4] = curve of first compound, second compound 31.6 µM
[5] = curve of first compound, second compound 100 µM

Compound: O=C(c1cc(Cc2n[nH]c(=O)c3ccccc23)ccc1F)N1CCN(C(=O)C2CC2)CC1 + Cn1nnc2c(C(N)=O)ncn2c1=O
- IC50 [1]: 21400 nM
- IC50 [2]: 21800 nM
- IC50 [3]: 16300 nM
- IC50 [4]: 4550 nM
- IC50 [5]: 863 nM
- viability, T/C (second compound 1 µM, first compound 0.0949 µM): 93.2%
- viability, T/C (second compound 1 µM, first compound 0.3 µM): 95%
- viability, T/C (second compound 1 µM, first compound 0.949 µM): 96.9%
- viability, T/C (second compound 1 µM, first compound 3 µM): 78.3%
- viability, T/C (second compound 1 µM, first compound 9.49 µM): 66.5%
- viability, T/C (second compound 1 µM, first compound 30 µM): 43.5%
- viability, T/C (second compound 3.16 µM, first compound 0.0949 µM): 93.7%
- viability, T/C (second compound 3.16 µM, first compound 0.3 µM): 93.8%
- viability, T/C (second compound 3.16 µM, first compound 0.949 µM): 81.3%
- viability, T/C (second compound 3.16 µM, first compound 3 µM): 73.6%
- viability, T/C (second compound 3.16 µM, first compound 9.49 µM): 59.7%
- viability, T/C (second compound 3.16 µM, first compound 30 µM): 46.4%
- viability, T/C (second compound 10 µM, first compound 0.0949 µM): 75.7%
- viability, T/C (second compound 10 µM, first compound 0.3 µM): 70.7%
- viability, T/C (second compound 10 µM, first compound 0.949 µM): 68%
- viability, T/C (second compound 10 µM, first compound 3 µM): 67.6%
- viability, T/C (second compound 10 µM, first compound 9.49 µM): 57.3%
- viability, T/C (second compound 10 µM, first compound 30 µM): 41.7%
- viability, T/C (second compound 31.6 µM, first compound 0.0949 µM): 66.6%
- viability, T/C (second compound 31.6 µM, first compound 0.3 µM): 64.5%
- viability, T/C (second compound 31.6 µM, first compound 0.949 µM): 54.3%
- viability, T/C (second compound 31.6 µM, first compound 3 µM): 55.7%
- viability, T/C (second compound 31.6 µM, first compound 9.49 µM): 45.2%
- viability, T/C (second compound 31.6 µM, first compound 30 µM): 36%
- viability, T/C (second compound 100 µM, first compound 0.0949 µM): 49.6%
- viability, T/C (second compound 100 µM, first compound 0.3 µM): 54%
- viability, T/C (second compound 100 µM, first compound 0.949 µM): 50.7%
- viability, T/C (second compound 100 µM, first compound 3 µM): 41.6%
- viability, T/C (second compound 100 µM, first compound 9.49 µM): 38.3%
- viability, T/C (second compound 100 µM, first compound 30 µM): 33.2%

Compound: Cc1sc2c(c1C)C(c1ccc(Cl)cc1)=NC(CC(=O)Nc1ccc(O)cc1)c1nnc(C)n1-2 (configuration not stated)
- viability, T/C (compound 0.00949 µM): 102% (2×) and 124%
- viability, T/C (compound 0.03 µM): 105% and 104% and 90.7%
- viability, T/C (compound 0.0949 µM): 79.4% and 83.4% and 72.8%
- viability, T/C (compound 0.3 µM): 48.1% and 59.7% and 50.1%
- viability, T/C (compound 0.949 µM): 35.9% and 35.4% and 29.1%
- viability, T/C (compound 3 µM): 29.3% and 33.5% and 24.2%
- IC50 (curve of compound): 277 nM and 490 nM and 282 nM

Compound: CC1COCCN1c1cc(-c2ccnn2C)c2ccnc(-c3ccn[nH]3)c2n1 (configuration not stated) + Cn1nnc2c(C(N)=O)ncn2c1=O
- IC50 [1]: < 31.6 nM
- IC50 [2]: < 31.6 nM
- IC50 [3]: < 31.6 nM
- IC50 [4]: < 31.6 nM
- IC50 [5]: < 31.6 nM
- viability, T/C (second compound 1 µM, first compound 0.0316 µM): 32.4%
- viability, T/C (second compound 1 µM, first compound 0.1 µM): 20.4%
- viability, T/C (second compound 1 µM, first compound 0.316 µM): 17.3%
- viability, T/C (second compound 1 µM, first compound 1 µM): 15.4%
- viability, T/C (second compound 1 µM, first compound 3.16 µM): 19.2%
- viability, T/C (second compound 1 µM, first compound 10 µM): 23%
- viability, T/C (second compound 3.16 µM, first compound 0.0316 µM): 26.9%
- viability, T/C (second compound 3.16 µM, first compound 0.1 µM): 17%
- viability, T/C (second compound 3.16 µM, first compound 0.316 µM): 15.8%
- viability, T/C (second compound 3.16 µM, first compound 1 µM): 17%
- viability, T/C (second compound 3.16 µM, first compound 3.16 µM): 19.7%
- viability, T/C (second compound 3.16 µM, first compound 10 µM): 22.5%
- viability, T/C (second compound 10 µM, first compound 0.0316 µM): 21.1%
- viability, T/C (second compound 10 µM, first compound 0.1 µM): 16.6%
- viability, T/C (second compound 10 µM, first compound 0.316 µM): 13%
- viability, T/C (second compound 10 µM, first compound 1 µM): 13.3%
- viability, T/C (second compound 10 µM, first compound 3.16 µM): 22.9%
- viability, T/C (second compound 10 µM, first compound 10 µM): 20.3%
- viability, T/C (second compound 31.6 µM, first compound 0.0316 µM): 20.6%
- viability, T/C (second compound 31.6 µM, first compound 0.1 µM): 15.8%
- viability, T/C (second compound 31.6 µM, first compound 0.316 µM): 13.1%
- viability, T/C (second compound 31.6 µM, first compound 1 µM): 11.8%
- viability, T/C (second compound 31.6 µM, first compound 3.16 µM): 12.5%
- viability, T/C (second compound 31.6 µM, first compound 10 µM): 18.2%
- viability, T/C (second compound 100 µM, first compound 0.0316 µM): 15%
- viability, T/C (second compound 100 µM, first compound 0.1 µM): 12.8%
- viability, T/C (second compound 100 µM, first compound 0.316 µM): 10.3%
- viability, T/C (second compound 100 µM, first compound 1 µM): 9.31%
- viability, T/C (second compound 100 µM, first compound 3.16 µM): 11.1%
- viability, T/C (second compound 100 µM, first compound 10 µM): 14.6%
